This note sets out measurements from US20260049089A1, “KRAS INHIBITOR COMPOUND” (SHANGHAI APEIRON THERAPEUTICS COMPANY LIMITED, priority 2022, published 2026).

Test [1] has as its target KRAS G12D GTP protein (His-tag-KRAS G12D) (Homo sapiens (Human), UniProt P01116, G12D). Nature of the test: AlphaLISA compound screening assay, KRAS-GTP protein format. The settings on record: AlphaLISA with cRAF, read-out: GTP-format IC50 (nM)/ Binding assay.
For test [2], the target named is KRAS G12D GCP protein (His-tag-KRAS G12D) (Homo sapiens (Human), UniProt P01116, G12D). The test can be described thus: AlphaLISA compound screening assay, KRAS-GCP protein format. The settings on record: AlphaLISA with cRAF, read-out: GCP-format IC50 (nM)/ Binding assay. For orientation: In Alpha technology, singlet oxygen from a donor bead excites a nearby acceptor bead.
Chain of KRAS G12D GCP protein (His-tag-KRAS G12D) (P01116-2 other isoform, or with tags, fused parts or gaps G12D): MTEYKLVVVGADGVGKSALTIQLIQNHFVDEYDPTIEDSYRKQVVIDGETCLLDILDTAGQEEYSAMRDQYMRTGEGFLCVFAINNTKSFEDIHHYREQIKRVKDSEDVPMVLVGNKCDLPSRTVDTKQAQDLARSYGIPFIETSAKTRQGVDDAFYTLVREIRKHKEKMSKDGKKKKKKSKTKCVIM

The target of test [3] is KRAS G12D GDP protein (His-tag-KRAS G12D) (Homo sapiens (Human), UniProt P01116, G12D). The test can be described thus: AlphaLISA compound screening assay, KRAS-GDP protein format. The settings on record: AlphaLISA with SOS1, GTP, cRAF, read-out: GDP-format IC50 (nM)/ Binding assay. The method, then: • Buffer 1: Composition and final concentrations: 25 mM HEPES, pH 7.5; 10 mM MgCl2; 0.01% Triton X-100. • Buffer 2: Composition and final concentrations: 25 mM HEPES, pH 7.5; 10 mM MgCl2; 0.01% Triton X-100; 1 mM DTT.
Chain of KRAS G12D GDP protein (His-tag-KRAS G12D) (P01116-2 other isoform, or with tags, fused parts or gaps G12D): as above
• 4> Use the ECHO555 automated liquid handler to prepare compounds. Test concentrations: The maximum compound concentration is 10 μM or 1 μM, serially diluted 3-fold, with 10 concentrations tested. Each concentration is tested in duplicate, with 0.5% DMSO as the solvent. • 5> High Signal Control Group (High Control): 30 replicates with 0.5% DMSO. KRAS protein is included in the reaction, representing 0% inhibition • 6> Low Signal Control Group (Low Control): 30 replicates with 0.5% DMSO. KRAS protein is not involved in the reaction, representing 100% inhibition
d. KRAS-GDP Protein Assay Procedure • 6> Add 5 μL of KRAS solution prepared with Buffer 1 to each well of the high-signal control group and compound test wells. Add 5 μL of Buffer 1 to each well of the low-signal control group. […] Incubate at room temperature for 1 hour. • 10> Measure the signal values using an EnVision plate reader. […] Incubate at room temperature for 1 hour. • 10> Measure the signal values using an EnVision plate reader. […] Incubate at room temperature for 1 hour. • 10> Measure the signal values using an EnVision plate reader. […]

The subject of a further test is pERK in AsPC-1 cells. The test can be described thus: ERK phosphorylation cell assay, AsPC-1. Type of test: cell-based. The settings on record: AsPC-1 cells; read-out: pERK AsPC-1_IC50.
Another test deals with AsPC-1 cells. The test can be described thus: 3D cell proliferation assay (CellTiter-Glo 3D), AsPC-1. Format: cell-based. The settings on record: 5 days, read-out: 3D Proliferation Inhibition AsPC-1_IC50. An outline of the steps: (§1)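 Cells grown with compound as 3D cultures in low-adsorption plates for 5 days at 37° C, 5% CO2. Viability read as ATP luminescence (CellTiter-Glo 3D), normalised to DMSO and medium-only controls; IC50 from non-linear fit of inhibition versus log concentration.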
In general terms: Cellular ATP, detected with luciferase, serves as a proxy for viable cell number.

The test system of the next test is AGS cells. Nature of the test: 3D cell proliferation assay (CellTiter-Glo 3D), AGS. Format: cell-based. The settings on record: 5 days, read-out: 3D Proliferation Inhibition AGS_IC50. An outline of the steps:
as §1

Another test has as its system pERK in AGS cells. Nature of the test: ERK phosphorylation cell assay, AGS. Format: cell-based. The settings on record: 3 hours compound incubation, read-out: pERK AGS_IC50. A digest of the protocol: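 AGS […] cells, seeded overnight, were treated with compound for 3 hours at 37° C. pERK was detected by in-cell immunofluorescence, with GAPDH as normalizer, using 800CW/680RD secondary antibodies. Mean relative p-ERK levels were fitted against log concentration, with DMSO as negative and 10 μM Reference as positive control.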

Molecules are shown by their SMILES.

Chain of KRAS G12D GTP protein (His-tag-KRAS G12D) (P01116-2 other isoform, or with tags, fused parts or gaps G12D): as above

On to `O=C1CCCCCCCCCc2c(F)ccc3cc(O)cc(c23)-c2c(cc3c(N4CC5CCC(C4)N5)nc(OC[C@@]45CCCN4C[C@H](F)C5)nc3c2F)N1` [Example 11, 16-((1R,5S)-3,8-diazabicyclo[3.2.1]octan-3-yl)-3,20-difluoro-18-(((2R,7aS)-2-fluorotetrahydro-1H-pyrazin-7a(5H)-yl)methoxy)-22-hydroxy-5,6,7,8,9,10,11,12-octahydro-4H-naphtho[1′,8′:4,5,61][1]azacyclohexadecano[2,3-g]quinazolin-13(14H)-one], for which the IC50 was 726 nM in test [1], 909 nM in test [2] and 500 nM in test [3].

In the case of `O=C1CCCCCc2c(F)ccc3cc(O)cc(c23)-c2c(cc3c(N4CC5CCC(C4)N5)nc(OC[C@@]45CCCN4C[C@H](F)C5)nc3c2F)N1` [Example 9B, 12-((1R,5S)-3,8-diazabicyclo[3.2.1]octan-3-yl)-3,16-difluoro-14-(((2R,7aS)-2-fluorotetrahydro-1H-pyrazin-7a(5H)-yl)methoxy)-18-hydroxy-5,6,7,8-tetrahydro-4H-naphtho[1′,8′:4,5,6][1]azacyclododecino[2,3-g]quinazolin-9(10H)-one], the IC50 with pERK in AsPC-1 cells was determined as 70 nM; in the test with AsPC-1 cells, 222 nM; in test [1], 1.95 nM; with AGS cells, 93 nM; in test [2], 58.5 nM; in test [3], 1.6 nM. For the same compound, the IC50 with pERK in AGS cells came out at 17 nM.
